The nature of data set [1]: Inhibitor exposure estimates and PK inputs for static drug interaction risk assessment. Particulars: for Cmax,u: maximal free plasma concentration (Cmax × fu) at ritlecitinib 200 mg.
For data set [2], the target named is T1, OAT1 (Homo sapiens, UniProt Q4U2R8).
T1 sequence (Q4U2R8 1-563): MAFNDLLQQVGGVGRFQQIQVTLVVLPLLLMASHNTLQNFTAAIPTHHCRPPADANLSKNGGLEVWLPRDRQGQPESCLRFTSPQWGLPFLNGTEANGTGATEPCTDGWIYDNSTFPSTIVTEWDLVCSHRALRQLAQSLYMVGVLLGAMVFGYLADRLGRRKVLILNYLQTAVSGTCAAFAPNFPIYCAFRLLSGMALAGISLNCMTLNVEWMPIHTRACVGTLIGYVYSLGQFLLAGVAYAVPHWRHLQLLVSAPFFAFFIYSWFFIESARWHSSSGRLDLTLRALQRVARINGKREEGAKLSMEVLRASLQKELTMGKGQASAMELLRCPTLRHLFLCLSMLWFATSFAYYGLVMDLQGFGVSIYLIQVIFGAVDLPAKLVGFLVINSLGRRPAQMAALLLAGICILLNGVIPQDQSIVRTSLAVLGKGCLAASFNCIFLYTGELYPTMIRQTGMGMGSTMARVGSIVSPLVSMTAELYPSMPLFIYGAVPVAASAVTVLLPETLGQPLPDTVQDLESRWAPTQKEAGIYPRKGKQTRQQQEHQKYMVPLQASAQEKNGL
Put plainly: OAT1-mediated 3H-PAH uptake inhibition in transfected HEK293 cells. Also noted: expressed in transfected cells; host or cells: HEK293. It is filed as cell-based. Particulars: for Fraction Inhibited / Triggers Drug Interaction Cutoff / Cmax,u/IC50 ratio: OAT1; for Fraction Inhibited: Cmax,u/(Cmax,u + IC50) (Eq. 2); for Triggers Drug Interaction Cutoff: Cmax,u/IC50 cutoff 0.1 (FDA); for Triggers Drug Interaction Cutoff / Cmax,u/IC50 ratio: 0.02 (EMA); for Cmax,u/IC50 ratio: cutoff 0.1 (FDA), ritlecitinib 200 mg; for IC50: renal OAT1, PAH 0.5 µM as substrate, 4 min, HEK293, mean ± SD, n = 3. Here is the method: Sources of human embryonic kidney (HEK) 293 cells expressing individual transfected human solute carriers (SLC), test substrates, and cell culture reagents, as well as detailed cell culture methods, incubations, and sample processing, have been described previously. SLC included hepatic OATP1B1, OATP1B3, and renal OAT1 and OAT3. […] Likewise, the uptake of non-labeled rosuvastatin (Biosynth, San Diego, CA) at 0.3—0.5 µM was determined for OATP1B1 and OATP1B3 at 1—3 min, and CP-I (Frontier Specialty Chemicals, Logan, UT) at 0.1 µM was determined for OATP1B1 and OATP1B3 at 10 min [14].
(§1) In all cases, ritlecitinib (0.018 to 1000 µM) and metabolite M2 (0.018 to 300 µM) was tested over a wide range of final concentrations dissolved in dimethyl sulfoxide (the final concentration of dimethyl sulfoxide in the assays was 1% v/v). For each transporter, the IC50 was estimated using a four-parameter logistic equation (Eq. 1) using GraphPad Prism software (GraphPad Software Inc, La Jolla, CA).1 %UptakeActivity=Bottom+(Top-Bottom)/1+10^(LogIC50-inhib*HillSlope)
At the end of the uptake and inhibition experiment, cellular accumulation of ^3H-PAH and ^3H-E3S was determined using liquid scintillation counting as previously described. Rosuvastatin uptake was determined using a tandem high performance liquid chromatography (LC)-mass spectrometry (MS) assay.
Assumes no substrate-dependent shift in IC50 versus PDA.^1 Each OAT form was singularly transfected in human embryonic kidney 293 cells.

For data set [3] the following is noted: human, in vivo.
Experimental: This was a Phase 1, 2-period fixed-sequence, multiple-dose, open-label study of the effect of ritlecitinib on the pharmacokinetics and renal clearance of a single, oral dose of rosuvastatin in healthy participants (Fig. 1). The safety and tolerability of rosuvastatin when coadministered with ritlecitinib was also evaluated.
In Period 1 on Day 1, following an overnight fast of at least 10 h, participants received a single oral administration of rosuvastatin 10 mg tablet. Period 1 was immediately followed by Period 2 with no washout. In Period 2 (coadministration), participants received oral ritlecitinib 200 mg once daily (QD) under non-fasting conditions for 7 days. On the morning of Day 8, a single dose of rosuvastatin 10 mg tablet was administered orally within approximately 5 min after administration of a ritlecitinib 200 mg dose under fasting conditions. On Days 9 and 10, participants continued to receive oral ritlecitinib 200 mg QD under non-fasting conditions.
Data set [4] relates to CYP1A2. Particulars: cited from earlier work.
Details of data set [5]: method as in data not published. Particulars: ref data not published, cited from earlier work.
Data set [6] relates to CYP3A. Particulars: cited from earlier work.
Data set [7] deals with T2, BCRP (Homo sapiens, UniProt Q9UNQ0).
T2 sequence (Q9UNQ0 1-655): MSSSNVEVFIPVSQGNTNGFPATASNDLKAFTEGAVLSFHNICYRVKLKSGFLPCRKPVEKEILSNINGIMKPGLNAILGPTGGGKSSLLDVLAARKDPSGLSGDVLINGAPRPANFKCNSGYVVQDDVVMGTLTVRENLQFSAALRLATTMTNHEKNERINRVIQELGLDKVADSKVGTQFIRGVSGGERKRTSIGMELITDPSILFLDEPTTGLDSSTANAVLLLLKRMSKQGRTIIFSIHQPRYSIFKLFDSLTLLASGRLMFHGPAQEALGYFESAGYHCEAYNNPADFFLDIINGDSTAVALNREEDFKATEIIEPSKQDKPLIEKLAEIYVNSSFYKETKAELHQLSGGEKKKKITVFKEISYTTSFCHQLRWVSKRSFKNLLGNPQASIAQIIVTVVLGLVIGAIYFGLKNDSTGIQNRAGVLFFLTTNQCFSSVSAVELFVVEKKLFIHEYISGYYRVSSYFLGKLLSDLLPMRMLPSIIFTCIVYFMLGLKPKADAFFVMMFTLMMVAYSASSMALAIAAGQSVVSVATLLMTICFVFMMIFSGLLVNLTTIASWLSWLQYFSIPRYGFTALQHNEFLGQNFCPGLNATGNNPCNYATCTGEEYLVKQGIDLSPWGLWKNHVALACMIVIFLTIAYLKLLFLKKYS
Put plainly: BCRP inhibition in BCRP-expressing membrane vesicles with rosuvastatin as substrate. The format is biochemical. Particulars: for [I]2/IC50 ratio (G-value): ritlecitinib 200 mg, cutoff = 10. Here is the method: As described previously, BCRP inhibition by ritlecitinib was measured using BCRP-expressing membrane vesicles with non-labeled rosuvastatin as substrate.
as §1

“And” between values parts separate entries of the source, which are not always exact repeats. Identical values can stand only once.

In the case of `C[C@H]1CC[C@@H](Nc2ncnc3[nH]ccc23)CN1C(=O)CCSC[C@H](N)C(=O)O` [M2], the “Cmax,u” value in data set [1] is 1.4 μM and 1.4^j μM. For the same compound, in data set [2] (OAT1 (PAH), highest concentration 300 µM), the “% inhibition at the highest concentration tested” value amounted to 40%. In data set [2], the “Fraction Inhibited” value is recorded as under 0.01, the “Triggers Drug Interaction Cutoff” value is recorded as “No”, the “Cmax,u/IC50 ratio” value is under 0.01 and the IC50 is over 300 µM.

In the case of `C=CC(=O)N1C[C@H](Nc2ncnc3[nH]ccc23)CC[C@@H]1C` [Ritlecitinib, ritlecitinib], the “serious AEs, severe AEs, dose reductions or discontinuations due to AEs” value in data set [3] is listed as “no serious adverse events”. Moreover, the “inhibition of CYP1A2” value in data set [4] (classification in words) is “moderate inhibitor”. In addition, the “contribution of CYP1A2 pathway to metabolism of ritlecitinib” value in data set [4] (ref data not published) is given as under 25%. Moreover, in data set [5] (200 mg QD regimen, FIH study), the “steady-state accumulation ratio of AUC” value is on record as 1.8. In data set [5] (200 mg single dose, first-in-human study), the “half-life (arithmetic mean)” value was 1.75 h. The “steady-state of PK reached at” value in data set [5] (QD regimens, FIH study) was 4 days. Besides, the “inhibition of CYP3A” value in data set [6] (classification in words) is reported as “moderate inhibitor”. Also, the “contribution of CYP3A pathway to metabolism of ritlecitinib” value in data set [6] (ref data not published) is recorded as under 25%. For the same compound, in data set [1] (estimated maximal free hepatic portal concentration, ritlecitinib 200 mg), the “Imax,inlet,u” value was 31.7 µM. The “Cmax,u” value in data set [1] was 4.7 µM. For the same compound, in data set [1] (oral molar dose of ritlecitinib (200 mg)/250 mL), the “[I]2” value was 2803 µM. Also, the “Fraction Inhibited” value in data set [2] is 0.03; in data set [2] (listed as ritlecitinib) it was at most 0.1. Further, the “Triggers Drug Interaction Cutoff” value in data set [2] and in data set [7] ([I]2/IC50 cutoff = 10) was “Yes” in each case. In addition, in data set [2], the “Cmax,u/IC50 ratio” value was 0.03. Besides, the IC50 in data set [2] stood at 156 ± 6 µM; in data set [7] (intestinal BCRP, RSV 0.2 µM as substrate, membrane vesicles, mean ± SD, n = 3), 27 ± 2 µM. For the same compound, the “[I]2/IC50 ratio (G-value)” value in data set [7] is reported as 104; in data set [7] (listed as ritlecitinib), ~ 100.

(Values after publication PMC10733197, “Utilization of Rosuvastatin and Endogenous Biomarkers in Evaluating the Impact of Ritlecitinib on BCRP, OATP1B1, and OAT3 Transporter Activity” (Pharmaceutical Research, 2023).)
